Measured values from patent publication US6737383B1, “Herbicidal oxadiazolidines” (priority 1999, dated 2004).

Assays:
wild oat = assay: Test E wild oat; assay type: in vivo, Avena fatua; details: Preemergence; for Wild oat plant response rating (0 to 100 scale): Rate 250 g/ha
soybean = assay: Test B pre/postemergence soybean; assay type: in vivo, Glycine max; details: for Soybean plant response rating (0 to 10 scale): 0 is no effect
Procedure, shortened: (§1)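 Response is a visual 0-to-10 score relative to untreated plants, where 0 means no effect and 10 means complete control, taken twelve to sixteen days after application. Treatments went onto soil at planting and onto foliage of 1- to 4-leaf plants, using a surfactant-containing non-phytotoxic solvent.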

winter barley = assay: Test E winter barley; assay type: in vivo, Hordeum vulgare; details: Preemergence; for Barley (winter) plant response rating (0 to 100 scale): Rate 250 g/ha
Italian ryegrass = assay: Test E Italian ryegrass; assay type: in vivo, Lolium multiflorum; details: Preemergence; for I. Ryegrass plant response rating (0 to 100 scale): Rate 250 g/ha
winter wheat [1] = assay: Test E winter wheat; assay type: in vivo, Triticum aestivum; details: Postemergence; for Plant response rating, Wheat (winter): 0 to 100 scale
Description: […] All plant species were grown using normal greenhouse practices. Crop and weed species include annual bluegrass (Poa annua), blackgrass (Alopecurus myosuroides), black nightshade (Solanum nigra), chickweed (Stellaria media), common poppy (Papaver rhoeas), deadnettle (Lamium amplexicaule), downy brome (Bromus tectorum), field violet (Viola arvensis), galium (Galium aparine), green foxtail (Setaria viridis), Italian ryegrass (Lolium multiflorum), jointed goatgrass (Aegilops cylindrica), kochia (Kochia scoparia), lambsquarters (Chenopodium album), littleseed canarygrass (Phalaris minor), rape (Brassica napus), redroot pigweed (Amaranthus retroflexus), Russian thistle (Salsola kali), scentless chamomile (Matricaria inodora), spring barley (Hordeum vulgare), sugar beet (Beta vulgaris), sunflower (Helianthus annuus), ivyleaf speedwell (Veronica hederaefolia), spring wheat (Triticum aestivum), winter wheat (Triticum aestivum), wild buckwheat (Polygonum convolvulus), wild mustard (Sinapis arvensis), wild oat (Avena fatua), windgrass (Apera spica-venti) and winter barley (Hordeum vulgare).
Treated plants and untreated controls were maintained in a greenhouse for approximately 21 to 28 days, after which all treated plants were compared to untreated controls and visually evaluated. […] A dash response (-) means no test result.

blackgrass = assay: Test E blackgrass; assay type: in vivo, Alopecurus myosuroides; details: Preemergence; for Blackgrass plant response rating (0 to 100 scale): Rate 250 g/ha
bamyardgrass = assay: Test B flood test barnyardgrass; assay type: in vivo, Echinochloa crus-galli
Procedure, shortened: (§2)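 Read-out is a visual response score from 0 (no effect) to 10 (complete control), assigned by comparison with untreated controls. Treatment was applied at the 2-leaf stage, and plants stayed in the greenhouse for twelve to sixteen days before scoring.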

winter wheat [2] = assay: Test E winter wheat; assay type: in vivo, Triticum aestivum; details: Preemergence; for Wheat (winter) plant response rating (0 to 100 scale): Rate 250 g/ha
giant foxtail = assay: Test B pre/postemergence giant foxtail; assay type: in vivo, Setaria faberii; details: for Giant foxtail plant response rating (0 to 10 scale): 0 is no effect
Procedure, shortened: as §1

rice = assay: Test B flood test rice; assay type: in vivo, Oryza sativa
Procedure, shortened: as §2

green foxtail = assay: Test E green foxtail; assay type: in vivo, Setaria viridis; details: Preemergence; for Green foxtail plant response rating (0 to 100 scale): Rate 250 g/ha
[3] = Rate 125 g/ha, 0 to 100 scale (0 no effect, 100 complete control)
[4] = Postemergence, Rate 125 g/ha, scale of 0 to 10 where 0 is no effect and 10 is complete control
[5] = Preemergence, Rate 62 g/ha, scale 0 to 10 (0 no effect, 10 complete control)
[6] = Preemergence, Rate 125 g/ha, 10 is complete control
[7] = Preemergence, Rate 250 g/ha, scale 0 to 10, 0 is no effect, 10 is complete control
[8] = Preemergence, Rate 500 g/ha, scale 0 to 10 (0 no effect, 10 complete control)
[9] = Rate 62 g/ha, Postemergence, scale of 0 to 10 where 0 is no effect and 10 is complete control
[10] = Rate 250 g/ha, Postemergence, scale 0 to 10, 0 is no effect, 10 is complete control
[11] = Rate 500 g/ha, Postemergence, scale 0 to 10
[12] = Postemergence (flood test species), Rate 125 g/ha, scale of 0 to 10 where 0 is no effect and 10 is complete control
[13] = Rate 31 g/ha, Postemergence section (flood test species), scale 0 to 10
[14] = Rate 62 g/ha, Postemergence section, flood test species, scale of 0 to 10 where 0 is no effect and 10 is complete control
[15] = Rate 250 g/ha, Postemergence (flood test), scale 0 to 10, 0 is no effect, 10 is complete control
[16] = Rate 500 g/ha, 0 to 100 scale where 0 is no effect and 100 is complete control
[17] = Rate 1000 g/ha, 0 to 100 scale where 0 is no effect and 100 is complete control
[18] = Preemergence, Rate 62 g/ha, scale of 0 to 10 where 0 is no effect and 10 is complete control
[19] = Rate 1000 g/ha, 0 is no effect and 100 is complete control
[20] = Rate 500 g/ha, 0 is no effect, 100 is complete control
[21] = Rate 2000 g/ha, 0 to 100 scale, 0 is no effect and 100 is complete control
[22] = Postemergence, Rate 1000 g/ha, scale 0 to 10 (0 no effect, 10 complete control)
[23] = Rate 1000 g/ha, Preemergence, scale 0 to 10 (0 no effect, 10 complete control)
[24] = Rate 2000 g/ha, Postemergence, scale 0 to 10
[25] = Rate 2000 g/ha, Preemergence, scale 0 to 10
[26] = Rate 250 g/ha, Pre-emergence, flood-test species, scale 0 to 10, 0 is no effect, 10 is complete control
[27] = Rate 500 g/ha, headed Pre-emergence (flood test species), scale 0 to 10 (0 no effect, 10 complete control)
[28] = Rate 500 g/ha, listed under Postemergence (flood test species), scale 0 to 10
[29] = Rate 1000 g/ha, Pre-emergence (as headed), scale 0 to 10

CC(C)N(C(=O)n1oc(=O)n(C)c1=O)c1ccc(Cl)cc1 [Compound 137]
30: Blackgrass plant response rating (0 to 100 scale) (blackgrass) | Wheat (winter) plant response rating (0 to 100 scale) (winter wheat [2])
9: Giant foxtail plant response rating (0 to 10 scale) (giant foxtail; [6]) | Plant response rating, Giant foxtail (giant foxtail; [10]) | Giant foxtail plant response rating (giant foxtail; [11])
20: Plant response rating, Wild oat (wild oat; [3]) | Plant response rating, Barley (winter) (winter barley; [3]) | Barley (winter) plant response rating (0 to 100 scale) (winter barley) | Plant response rating, I. Ryegrass (Italian ryegrass; [3]) | Wheat (winter) plant response rating (winter wheat [1]; Rate 250 g/ha, 0 to 100 scale where 0 is no effect and 100 is complete control) | Plant response rating, Blackgrass (blackgrass; [3]) | Plant response rating, Wheat (winter) (winter wheat [2]; [3])
50: I. Ryegrass plant response rating (0 to 100 scale) (Italian ryegrass) | Green foxtail plant response rating (0 to 100 scale) (green foxtail)
0: Soybean plant response rating (soybean; [5]) | Soybean plant response rating (0 to 10 scale) (soybean; [6]) | Barnyardgrass plant response rating (bamyardgrass; [12]) | Barnyardgrass plant response rating (bamyardgrass; [13]) | Barnyardgrass plant response rating (bamyardgrass; [14]) | Plant response rating, Barnyardgrass (bamyardgrass; [15]) | Rice plant response rating (rice; [12]) | Rice plant response rating (rice; [13]) | Rice plant response rating (rice; [14]) | Plant response rating, Rice (rice; [15])
10: Wild oat plant response rating (0 to 100 scale) (wild oat) | Plant response rating, Wheat (winter) (winter wheat [1]; Rate 125 g/ha) | Giant foxtail plant response rating (giant foxtail; [7]) | Giant foxtail plant response rating (giant foxtail; [8])
15: Plant response rating, Green foxtail (green foxtail; [3])
7: Plant response rating, Soybean (soybean; [10])
8: Soybean plant response rating (soybean; [11]) | Giant foxtail plant response rating (giant foxtail; [4]) | Giant foxtail plant response rating (giant foxtail; [5]) | Giant foxtail plant response rating (giant foxtail; [9])
3: Soybean plant response rating (soybean; [7])
5: Soybean plant response rating (soybean; [8]) | Soybean plant response rating (soybean; [9])
6: Soybean plant response rating (soybean; [4])

CC(C)N(C(=O)n1oc(=O)n([C@@H](C)c2ccccc2)c1=O)c1ccccc1 [Compound 173]
6: Giant foxtail plant response rating (giant foxtail; [18])
20: Wheat (winter) plant response rating (0 to 100 scale) (winter wheat [2])
4: Soybean plant response rating (soybean; [11])
45: Plant response rating, Wild oat (wild oat; [16]) | Plant response rating, I. Ryegrass (Italian ryegrass; [16])
3: Soybean plant response rating (soybean; [8])
30: Barley (winter) plant response rating (0 to 100 scale) (winter barley) | Plant response rating, Wheat (winter) (winter wheat [2]; [16])
0: Soybean plant response rating (soybean; [18]) | Soybean plant response rating (0 to 10 scale) (soybean; [6]) | Soybean plant response rating (soybean; [7]) | Giant foxtail plant response rating (giant foxtail; [4]) | Giant foxtail plant response rating (giant foxtail; [9]) | Plant response rating, Giant foxtail (giant foxtail; [10]) | Giant foxtail plant response rating (giant foxtail; [11])
85: Green foxtail plant response rating (0 to 100 scale) (green foxtail)
70: Plant response rating, Blackgrass (blackgrass; [16])
9: Giant foxtail plant response rating (0 to 10 scale) (giant foxtail; [6]) | Giant foxtail plant response rating (giant foxtail; [7])
2: Soybean plant response rating (soybean; [4]) | Soybean plant response rating (soybean; [9]) | Plant response rating, Soybean (soybean; [10])
10: Giant foxtail plant response rating (giant foxtail; [8])
50: Wild oat plant response rating (0 to 100 scale) (wild oat) | Plant response rating, Wild oat (wild oat; [17]) | Blackgrass plant response rating (0 to 100 scale) (blackgrass) | Plant response rating, Wheat (winter) (winter wheat [2]; [17])
40: Plant response rating, Barley (winter) (winter barley; [16]) | Plant response rating, Barley (winter) (winter barley; [17]) | Plant response rating, Wheat (winter) (winter wheat [1]; [20])
98: Plant response rating, I. Ryegrass (Italian ryegrass; [17]) | Plant response rating, Blackgrass (blackgrass; [17])
35: I. Ryegrass plant response rating (0 to 100 scale) (Italian ryegrass)
60: Plant response rating, Wheat (winter) (winter wheat [1]; [19])
100: Plant response rating, Green foxtail (green foxtail; [17])

CC(C)N(C(=O)n1oc(=O)n(N(C)c2ccccc2)c1=O)c1ccc(F)cc1 [Compound 177]
4: Soybean plant response rating (soybean; [11]) | Soybean plant response rating (soybean; [24])
85: Plant response rating, Green foxtail (green foxtail; [17])
65: Plant response rating, I. Ryegrass (Italian ryegrass; [21]) | Plant response rating, Wheat (winter) (winter wheat [1]; [19])
80: Plant response rating, Wild oat (wild oat; [16]) | Plant response rating, Wild oat (wild oat; [17]) | Plant response rating, Barley (winter) (winter barley; [21])
100: Plant response rating, Green foxtail (green foxtail; [21])
60: Plant response rating, Barley (winter) (winter barley; [16]) | Plant response rating, I. Ryegrass (Italian ryegrass; [16]) | Plant response rating, I. Ryegrass (Italian ryegrass; [17]) | Plant response rating, Blackgrass (blackgrass; [21]) | Plant response rating, Blackgrass (blackgrass; [16]) | Plant response rating, Blackgrass (blackgrass; [17]) | Plant response rating, Green foxtail (green foxtail; [16])
3: Soybean plant response rating (soybean; [22]) | Giant foxtail plant response rating (giant foxtail; [18]) | Giant foxtail plant response rating (0 to 10 scale) (giant foxtail; [6])
50: Plant response rating, Wheat (winter) (winter wheat [2]; [17])
70: Plant response rating, Wild oat (wild oat; [21]) | Plant response rating, Barley (winter) (winter barley; [17]) | Plant response rating, Wheat (winter) (winter wheat [1]; Rate 2000 g/ha, 0 is no effect and 100 is complete control) | Plant response rating, Wheat (winter) (winter wheat [1]; [20]) | Plant response rating, Wheat (winter) (winter wheat [2]; [21]) | Plant response rating, Wheat (winter) (winter wheat [2]; [16])
10: Giant foxtail plant response rating (giant foxtail; [7]) | Giant foxtail plant response rating (giant foxtail; [8]) | Plant response rating, Giant foxtail (giant foxtail; [23]) | Giant foxtail plant response rating (giant foxtail; [25])
0: Soybean plant response rating (soybean; [18]) | Soybean plant response rating (0 to 10 scale) (soybean; [6]) | Soybean plant response rating (soybean; [7]) | Soybean plant response rating (soybean; [8]) | Plant response rating, Soybean (soybean; [23]) | Soybean plant response rating (soybean; [25]) | Barnyardgrass plant response rating (bamyardgrass; [12]) | Barnyardgrass plant response rating (bamyardgrass; [14]) | Plant response rating, Barnyardgrass (bamyardgrass; [15]) | Barnyardgrass plant response rating (bamyardgrass; [26]) | Plant response rating, Barnyardgrass (bamyardgrass; [27]) | Barnyardgrass plant response rating (bamyardgrass; [28]) | Barnyardgrass plant response rating (bamyardgrass; [29]) | Barnyardgrass plant response rating (bamyardgrass; Rate 2000 g/ha, Pre-emergence (as headed), scale 0 to 10, 0 no effect, 10 complete control) | Giant foxtail plant response rating (giant foxtail; [4]) | Giant foxtail plant response rating (giant foxtail; [22]) | Giant foxtail plant response rating (giant foxtail; [9]) | Plant response rating, Giant foxtail (giant foxtail; [10]) | Giant foxtail plant response rating (giant foxtail; [11]) | Rice plant response rating (rice; [12]) | Rice plant response rating (rice; [14]) | Plant response rating, Rice (rice; [15]) | Rice plant response rating (rice; [26]) | Plant response rating, Rice (rice; [27]) | Rice plant response rating (rice; [28]) | Rice plant response rating (rice; [29]) | Rice plant response rating (rice; Rate 2000 g/ha, Pre-emergence (as headed), scale 0 to 10)
2: Plant response rating, Soybean (soybean; [10]) | Giant foxtail plant response rating (giant foxtail; [24])
1: Soybean plant response rating (soybean; [4]) | Soybean plant response rating (soybean; [9])
